Measurements published in ChEMBL document CHEMBL1201862, “PubChem BioAssay data set” (2004).
Blank lines part the entries; values can stand above or below the molecule they belong to. Active and inactive are the calls of the source.

Columns and labels:
[1] = target: T1, Multidrug resistance protein CDR2 (Candida albicans (strain SC5314 / ATCC MYA-2876) (Yeast), UniProt P78595); assay: inhibition of Nile Red efflux via Candida CDR2 – S. cerevisiae AD1-8u, singleplex, Cherry Pick1 hits, dose response (AID 588604); format: functional
T1 sequence (P78595 whole entry): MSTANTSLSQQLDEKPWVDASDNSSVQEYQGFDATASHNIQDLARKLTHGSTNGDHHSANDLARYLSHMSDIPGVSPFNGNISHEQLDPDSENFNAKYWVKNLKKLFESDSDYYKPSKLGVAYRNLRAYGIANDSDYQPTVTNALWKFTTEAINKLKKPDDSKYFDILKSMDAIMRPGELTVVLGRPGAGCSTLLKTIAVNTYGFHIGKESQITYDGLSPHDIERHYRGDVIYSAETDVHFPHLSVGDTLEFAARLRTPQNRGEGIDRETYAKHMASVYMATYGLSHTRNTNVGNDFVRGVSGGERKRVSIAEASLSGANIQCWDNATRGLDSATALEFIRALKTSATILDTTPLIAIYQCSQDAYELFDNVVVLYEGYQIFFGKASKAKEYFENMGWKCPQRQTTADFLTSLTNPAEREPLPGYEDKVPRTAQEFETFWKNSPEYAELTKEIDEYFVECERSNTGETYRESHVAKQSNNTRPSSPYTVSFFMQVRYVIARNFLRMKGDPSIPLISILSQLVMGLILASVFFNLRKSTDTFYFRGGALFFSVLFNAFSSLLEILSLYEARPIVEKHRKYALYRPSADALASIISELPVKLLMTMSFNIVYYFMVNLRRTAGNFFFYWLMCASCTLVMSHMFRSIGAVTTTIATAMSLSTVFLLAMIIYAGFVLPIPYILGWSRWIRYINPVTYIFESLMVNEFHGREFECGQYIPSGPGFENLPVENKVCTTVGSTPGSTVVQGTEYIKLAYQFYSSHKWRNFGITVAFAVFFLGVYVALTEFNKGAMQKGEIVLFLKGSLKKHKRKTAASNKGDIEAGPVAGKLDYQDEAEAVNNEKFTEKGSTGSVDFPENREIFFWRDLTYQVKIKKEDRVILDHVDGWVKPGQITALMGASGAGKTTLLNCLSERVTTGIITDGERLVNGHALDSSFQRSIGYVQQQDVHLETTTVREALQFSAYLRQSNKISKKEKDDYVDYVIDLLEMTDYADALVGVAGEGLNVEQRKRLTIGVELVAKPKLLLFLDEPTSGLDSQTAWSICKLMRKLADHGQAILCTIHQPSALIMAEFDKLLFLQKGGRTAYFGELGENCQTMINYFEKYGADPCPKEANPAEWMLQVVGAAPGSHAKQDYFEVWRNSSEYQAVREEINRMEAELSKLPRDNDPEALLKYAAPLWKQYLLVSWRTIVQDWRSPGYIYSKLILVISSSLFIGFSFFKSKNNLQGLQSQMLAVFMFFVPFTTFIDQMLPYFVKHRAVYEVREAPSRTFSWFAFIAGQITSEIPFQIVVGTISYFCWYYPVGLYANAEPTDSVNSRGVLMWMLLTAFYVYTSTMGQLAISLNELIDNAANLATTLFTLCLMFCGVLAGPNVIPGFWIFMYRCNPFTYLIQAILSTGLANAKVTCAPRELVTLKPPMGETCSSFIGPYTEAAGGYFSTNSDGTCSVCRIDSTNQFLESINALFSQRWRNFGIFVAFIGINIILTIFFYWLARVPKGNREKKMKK

Melanocortin receptor 4 = Melanocortin receptor 4 (Homo sapiens, UniProt P32245); format: functional, cell-based;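 note: Cell-based assay with luminescence read-out, confirmatory dose-response testing for agonist activity of biased ligands at MC4R; human U2OS cells with tagged receptor and beta-arrestin; potency of agonists that increase receptor coupling to beta-arrestin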
HEK293 [2] = assay: membrane integrity loss in HEK cells – cell-based, fluorescence, cytotoxicity control for IDE activator project, dose response (AID 588440); format: functional; settings: Homo sapiens;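 note: cytotoxicity by LDH release measuring loss of membrane integrity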
Insulin-degrading enzyme [3] = target: T2, Insulin-degrading enzyme (Homo sapiens, UniProt P14735); assay: cellular IDE activation of Abeta substrate cleavage – fluorescence polarization, HEK cells, dose response (AID 588439); format: functional, cell-based
T2 sequence (P14735 whole entry): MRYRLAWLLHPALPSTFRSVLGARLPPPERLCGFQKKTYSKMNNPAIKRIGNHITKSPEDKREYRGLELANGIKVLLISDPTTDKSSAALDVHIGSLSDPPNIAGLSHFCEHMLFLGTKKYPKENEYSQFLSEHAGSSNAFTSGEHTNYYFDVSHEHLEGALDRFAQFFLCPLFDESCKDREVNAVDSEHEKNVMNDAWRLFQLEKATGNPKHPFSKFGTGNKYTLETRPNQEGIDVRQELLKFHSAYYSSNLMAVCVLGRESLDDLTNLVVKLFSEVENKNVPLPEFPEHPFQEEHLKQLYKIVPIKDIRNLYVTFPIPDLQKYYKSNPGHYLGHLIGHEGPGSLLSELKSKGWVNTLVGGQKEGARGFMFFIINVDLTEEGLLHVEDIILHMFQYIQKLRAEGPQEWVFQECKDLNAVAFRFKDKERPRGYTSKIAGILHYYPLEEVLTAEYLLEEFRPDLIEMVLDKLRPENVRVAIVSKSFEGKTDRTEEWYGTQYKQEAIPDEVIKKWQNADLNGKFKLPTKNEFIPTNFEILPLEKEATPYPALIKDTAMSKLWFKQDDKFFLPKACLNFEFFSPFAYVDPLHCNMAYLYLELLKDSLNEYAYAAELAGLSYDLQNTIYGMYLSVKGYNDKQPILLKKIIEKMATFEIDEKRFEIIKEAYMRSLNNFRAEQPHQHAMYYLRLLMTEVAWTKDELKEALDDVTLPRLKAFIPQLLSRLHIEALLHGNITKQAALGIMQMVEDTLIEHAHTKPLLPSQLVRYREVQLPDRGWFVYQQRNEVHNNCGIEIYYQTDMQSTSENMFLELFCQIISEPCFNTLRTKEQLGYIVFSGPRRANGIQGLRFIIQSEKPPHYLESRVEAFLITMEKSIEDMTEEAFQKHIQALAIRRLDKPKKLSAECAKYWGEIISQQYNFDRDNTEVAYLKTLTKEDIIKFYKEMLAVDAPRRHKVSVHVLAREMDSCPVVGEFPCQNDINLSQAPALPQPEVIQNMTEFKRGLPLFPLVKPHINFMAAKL

Insulin-degrading enzyme [4] = target: T2, Insulin-degrading enzyme; assay: recombinant IDE activation, cell-free – biochemical, fluorescence polarization, counter-screen for IDE activator project, dose response (AID 588681)
[5] = target: T1, Multidrug resistance protein CDR2; assay: blockers of Nile Red efflux by Candida CDR2 – S. cerevisiae AD1-8u, singleplex, Cherry Pick2 set, dose response (AID 623994); format: functional; settings: read-out: EC50_MICROM
HEK293 [6] = assay: optical interference in Abeta FP readout, dose response, artefact control for IDE activator project, biochemical, fluorescence polarization (AID 588442); format: functional, cell-based; settings: Homo sapiens
[7] = target: T3, Neuropeptides B/W receptor type 1 (Homo sapiens, UniProt P48145); assay: human NPBW1 receptor blockade, IC50 – cell-based, fluorescence, dose response, set 5, late-stage follow-up (AID 588566); format: functional
T3 sequence (P48145 whole entry): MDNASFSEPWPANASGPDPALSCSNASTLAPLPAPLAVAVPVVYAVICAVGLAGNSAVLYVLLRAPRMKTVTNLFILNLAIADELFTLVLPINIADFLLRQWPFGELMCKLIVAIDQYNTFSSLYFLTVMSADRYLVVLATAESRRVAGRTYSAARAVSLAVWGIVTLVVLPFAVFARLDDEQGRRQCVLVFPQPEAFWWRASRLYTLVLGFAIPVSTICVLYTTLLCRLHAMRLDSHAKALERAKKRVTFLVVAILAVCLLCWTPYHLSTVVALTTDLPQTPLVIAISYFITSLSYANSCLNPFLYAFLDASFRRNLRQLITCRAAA

[8] = target: Melanin-concentrating hormone receptor 1 (Homo sapiens, UniProt Q99705); assay: Late-stage fluorescence-based counterscreen for antagonists of the G-protein coupled receptor 7 (GPR7): cell-based dose response assay to identify antagonists of the melanin-concentrating hormone receptor 1 (MCHR1) Set 5.; format: functional
[9] = target: Leucine-rich repeat serine/threonine-protein kinase 2 (Homo sapiens, UniProt Q5S007); format: functional;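 note: value from a broad kinome-wide panel profiling study in which LRRK2 was one of the kinases tested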
[10] = target: Serine/threonine-protein kinase Chk1 (Homo sapiens, UniProt O14757); format: functional;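 note: measured as one member of a kinome-wide kinase profiling panel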
[11] = target: ALK tyrosine kinase receptor (Homo sapiens, UniProt Q9UM73); format: functional;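 note: ALK tested as one member of a kinase panel screen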
[12] = target: Cyclin-dependent kinase 8 (Homo sapiens, UniProt P49336); assay: Navigating the Kinome. Panel member name: CDK8; format: functional
[13] = target: cAMP-dependent protein kinase catalytic subunit PRKX (Homo sapiens, UniProt P51817); format: functional
[14] = target: Vascular endothelial growth factor receptor 2 (Homo sapiens, UniProt P35968); format: functional
[15] = target: Tyrosine-protein kinase JAK3 (Homo sapiens, UniProt P52333); format: functional
[16] = target: Mitogen-activated protein kinase 9 (Homo sapiens, UniProt P45984); format: functional;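 note: value from a kinome panel profiling assay, MAPK9 panel entry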
[17] = target: Rho-associated protein kinase 1 (Homo sapiens, UniProt Q13464); format: functional;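 note: measured within a broad kinome-wide panel profiling many kinases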
[18] = target: Receptor-type tyrosine-protein kinase FLT3 (Homo sapiens, UniProt P36888); format: functional;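 note: FLT3 was tested as one member of a kinome-wide kinase panel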
Activated CDC42 kinase 1 = Activated CDC42 kinase 1 (Homo sapiens, UniProt Q07912); assay: Navigating the Kinome. Panel member name: ACK1; format: functional
Chain of Activated CDC42 kinase 1 (Q07912 whole entry): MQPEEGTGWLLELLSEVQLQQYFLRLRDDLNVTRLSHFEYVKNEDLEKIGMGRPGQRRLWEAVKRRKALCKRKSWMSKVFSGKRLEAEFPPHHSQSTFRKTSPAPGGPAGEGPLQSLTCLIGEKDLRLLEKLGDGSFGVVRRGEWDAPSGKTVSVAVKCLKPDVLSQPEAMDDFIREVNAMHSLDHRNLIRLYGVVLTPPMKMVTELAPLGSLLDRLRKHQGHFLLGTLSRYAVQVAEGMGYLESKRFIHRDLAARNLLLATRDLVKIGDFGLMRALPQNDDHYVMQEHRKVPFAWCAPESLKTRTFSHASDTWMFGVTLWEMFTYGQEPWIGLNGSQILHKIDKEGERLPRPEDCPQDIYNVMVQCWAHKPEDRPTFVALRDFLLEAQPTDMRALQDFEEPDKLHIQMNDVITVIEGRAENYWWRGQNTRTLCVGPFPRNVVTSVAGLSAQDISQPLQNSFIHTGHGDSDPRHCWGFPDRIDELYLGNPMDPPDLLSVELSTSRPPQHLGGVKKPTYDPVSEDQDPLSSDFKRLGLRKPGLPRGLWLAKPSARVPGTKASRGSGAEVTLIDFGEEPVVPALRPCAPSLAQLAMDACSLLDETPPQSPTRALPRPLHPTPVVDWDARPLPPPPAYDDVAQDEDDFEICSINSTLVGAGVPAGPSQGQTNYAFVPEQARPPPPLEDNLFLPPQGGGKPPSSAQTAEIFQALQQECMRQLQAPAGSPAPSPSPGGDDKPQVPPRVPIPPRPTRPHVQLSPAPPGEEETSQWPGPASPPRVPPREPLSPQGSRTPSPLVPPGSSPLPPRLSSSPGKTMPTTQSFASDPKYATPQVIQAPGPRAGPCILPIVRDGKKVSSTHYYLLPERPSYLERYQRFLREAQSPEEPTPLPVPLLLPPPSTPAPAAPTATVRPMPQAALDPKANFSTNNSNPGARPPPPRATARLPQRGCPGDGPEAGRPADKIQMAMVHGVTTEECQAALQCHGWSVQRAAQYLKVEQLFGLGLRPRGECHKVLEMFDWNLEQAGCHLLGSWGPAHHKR

[19] = target: Dual specificity mitogen-activated protein kinase kinase 1 (Homo sapiens, UniProt Q02750); assay: Navigating the Kinome. Panel member name: MAP2K1; format: functional
[20] = target: Cyclin-dependent kinase 7 (Homo sapiens, UniProt P50613); format: functional;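 note: value comes from a kinome-wide kinase profiling panel in which CDK7 is one member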
[21] = target: Vascular endothelial growth factor receptor 1 (Homo sapiens, UniProt P17948); format: functional;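 note: measured within a kinome-wide profiling panel, FLT1 as the panel member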
[22] = target: Insulin-like growth factor 1 receptor (Homo sapiens, UniProt P08069); assay: Navigating the Kinome. Panel member name: IGF1R; format: functional
[23] = target: Macrophage-stimulating protein receptor (Homo sapiens, UniProt Q04912); assay: Navigating the Kinome. Panel member name: MST1R; format: functional
[24] = target: Dual specificity tyrosine-phosphorylation-regulated kinase 1B (Homo sapiens, UniProt Q9Y463); assay: Navigating the Kinome. Panel member name: DYRK1B; format: functional
[25] = target: G protein-coupled receptor kinase 5 (Homo sapiens, UniProt P34947); assay: Navigating the Kinome. Panel member name: GPRK5; format: functional
[26] = target: Macrophage colony-stimulating factor 1 receptor (Homo sapiens, UniProt P07333); format: functional;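 note: value comes from the Navigating the Kinome screening panel, CSF1R member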
[27] = target: Serine/threonine-protein kinase D3 (Homo sapiens, UniProt O94806); format: functional;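 note: determined within a kinase panel screen, with PRKCN as the panel member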
[28] = target: 5'-AMP-activated protein kinase catalytic subunit alpha-1 (Homo sapiens, UniProt Q13131); format: functional
[29] = target: Tyrosine-protein kinase Fyn (Homo sapiens, UniProt P06241); format: functional
Activin receptor type-1 = Activin receptor type-1 (Homo sapiens, UniProt Q04771); assay: Navigating the Kinome. Panel member name: ACVR1; format: functional
[30] = target: Tyrosine-protein kinase Lck (Homo sapiens, UniProt P06239); format: functional;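 note: lck was assayed as one member of a kinase panel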
[31] = target: Mitogen-activated protein kinase 8 (Homo sapiens, UniProt P45983); format: functional;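 note: value comes from one member of a kinome-wide kinase profiling panel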
[32] = target: Platelet-derived growth factor receptor alpha (Homo sapiens, UniProt P16234); assay: Navigating the Kinome. Panel member name: PDGFRA; format: functional
[33] = target: Cyclin-dependent kinase 5 (Homo sapiens, UniProt Q00535); format: functional;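 note: CDK5 measured as one member of a kinase profiling panel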
[34] = target: Glycogen synthase kinase-3 beta (Homo sapiens, UniProt P49841); format: functional;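 note: value comes from a broad kinome profiling panel, with GSK3B as the panel member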
[35] = target: Dual specificity protein kinase CLK2 (Homo sapiens, UniProt P49760); format: functional
[36] = target: Tyrosine-protein kinase receptor TYRO3 (Homo sapiens, UniProt Q06418); format: functional;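 note: TYRO3 value obtained as one member of a kinome-wide profiling panel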
[37] = target: Tyrosine-protein kinase ABL1 (Homo sapiens, UniProt P00519); format: functional
[38] = target: Serine/threonine-protein kinase pim-1 (Homo sapiens, UniProt P11309); format: functional
Chain of Serine/threonine-protein kinase pim-1 (P11309 whole entry): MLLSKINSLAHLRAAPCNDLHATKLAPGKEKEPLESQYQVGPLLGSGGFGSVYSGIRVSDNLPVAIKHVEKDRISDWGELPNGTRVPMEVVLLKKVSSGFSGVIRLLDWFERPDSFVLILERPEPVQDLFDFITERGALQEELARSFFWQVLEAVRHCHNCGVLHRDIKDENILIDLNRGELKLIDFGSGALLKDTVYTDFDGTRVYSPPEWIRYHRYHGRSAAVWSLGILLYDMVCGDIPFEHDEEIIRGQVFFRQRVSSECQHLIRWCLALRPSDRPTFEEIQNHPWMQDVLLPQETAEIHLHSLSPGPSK

[39] = target: Death-associated protein kinase 3 (Homo sapiens, UniProt O43293); format: functional;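 note: measured as one member of a kinome-wide profiling panel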
[40] = target: Protein kinase C theta type (Homo sapiens, UniProt Q04759); assay: Navigating the Kinome. Panel member name: PRKCQ; format: functional
[41] = target: Hepatocyte growth factor receptor (Homo sapiens, UniProt P08581); format: functional;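 note: kinase panel profiling across the kinome, with MET as the panel member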
Aurora kinase B = Aurora kinase B (Homo sapiens, UniProt Q96GD4); format: functional
[42] = target: Tyrosine-protein kinase JAK2 (Homo sapiens, UniProt O60674); format: functional;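 note: JAK2 tested as one member of a kinase panel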
[43] = target: Glycogen synthase kinase-3 alpha (Homo sapiens, UniProt P49840); format: functional;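 note: GSK3A result taken from a broad kinome-wide kinase panel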
[44] = target: Serine/threonine-protein kinase Nek2 (Homo sapiens, UniProt P51955); format: functional
Chain of Serine/threonine-protein kinase Nek2 (P51955 whole entry): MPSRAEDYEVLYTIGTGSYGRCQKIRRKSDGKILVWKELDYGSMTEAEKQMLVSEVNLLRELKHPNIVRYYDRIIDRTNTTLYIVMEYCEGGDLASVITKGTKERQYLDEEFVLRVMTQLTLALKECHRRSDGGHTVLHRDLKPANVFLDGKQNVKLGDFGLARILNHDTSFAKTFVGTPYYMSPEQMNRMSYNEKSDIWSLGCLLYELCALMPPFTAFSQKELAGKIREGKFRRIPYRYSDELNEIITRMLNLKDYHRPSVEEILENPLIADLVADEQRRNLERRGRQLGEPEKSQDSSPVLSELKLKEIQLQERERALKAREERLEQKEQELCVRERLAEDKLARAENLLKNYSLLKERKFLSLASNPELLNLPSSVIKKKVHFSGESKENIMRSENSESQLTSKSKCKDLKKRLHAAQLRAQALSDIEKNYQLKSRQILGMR

[45] = target: Serine/threonine-protein kinase PAK 4 (Homo sapiens, UniProt O96013); format: functional;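 note: value obtained within a kinome profiling panel in which PAK4 was one of the panel members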
[46] = target: Serine/threonine-protein kinase TAO1 (Homo sapiens, UniProt Q7L7X3); format: functional
[47] = target: BDNF/NT-3 growth factors receptor (Homo sapiens, UniProt Q16620); format: functional;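 note: NTRK2 measured as one member of a broad kinome-wide kinase profiling panel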
Chain of BDNF/NT-3 growth factors receptor (Q16620 whole entry): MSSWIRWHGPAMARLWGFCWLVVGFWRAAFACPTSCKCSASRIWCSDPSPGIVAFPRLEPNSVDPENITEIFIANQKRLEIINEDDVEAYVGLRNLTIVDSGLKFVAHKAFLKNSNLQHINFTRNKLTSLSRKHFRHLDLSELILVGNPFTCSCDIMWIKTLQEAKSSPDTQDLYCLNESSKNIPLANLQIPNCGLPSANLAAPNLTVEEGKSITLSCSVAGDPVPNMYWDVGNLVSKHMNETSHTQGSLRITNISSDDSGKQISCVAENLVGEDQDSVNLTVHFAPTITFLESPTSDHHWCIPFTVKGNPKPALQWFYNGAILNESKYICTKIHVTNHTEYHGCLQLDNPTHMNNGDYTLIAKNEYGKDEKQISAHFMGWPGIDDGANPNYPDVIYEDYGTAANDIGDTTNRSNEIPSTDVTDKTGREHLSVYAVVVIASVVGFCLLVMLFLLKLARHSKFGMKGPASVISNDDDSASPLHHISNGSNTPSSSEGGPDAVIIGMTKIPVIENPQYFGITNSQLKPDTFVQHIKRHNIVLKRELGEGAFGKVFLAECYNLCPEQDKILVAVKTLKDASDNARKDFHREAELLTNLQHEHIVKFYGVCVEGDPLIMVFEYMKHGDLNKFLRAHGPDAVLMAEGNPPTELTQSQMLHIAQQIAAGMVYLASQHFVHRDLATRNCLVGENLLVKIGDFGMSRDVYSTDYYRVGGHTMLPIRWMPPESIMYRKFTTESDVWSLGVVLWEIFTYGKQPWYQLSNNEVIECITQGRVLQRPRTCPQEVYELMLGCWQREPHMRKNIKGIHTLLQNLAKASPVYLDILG

[48] = target: Mitogen-activated protein kinase 14 (Homo sapiens, UniProt Q16539); format: functional;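 note: part of a kinome-wide panel, MAPK14 entry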
[49] = target: Serine/threonine-protein kinase TBK1 (Homo sapiens, UniProt Q9UHD2); assay: Navigating the Kinome. Panel member name: TBK1; format: functional
[50] = target: Mitogen-activated protein kinase kinase kinase kinase 2 (Homo sapiens, UniProt Q12851); format: functional;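 note: measured as one member of a kinome-wide kinase panel, with MAP4K2 as the panel entry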
[51] = target: Fibroblast growth factor receptor 1 (Homo sapiens, UniProt P11362); format: functional
Chain of Fibroblast growth factor receptor 1 (P11362 whole entry): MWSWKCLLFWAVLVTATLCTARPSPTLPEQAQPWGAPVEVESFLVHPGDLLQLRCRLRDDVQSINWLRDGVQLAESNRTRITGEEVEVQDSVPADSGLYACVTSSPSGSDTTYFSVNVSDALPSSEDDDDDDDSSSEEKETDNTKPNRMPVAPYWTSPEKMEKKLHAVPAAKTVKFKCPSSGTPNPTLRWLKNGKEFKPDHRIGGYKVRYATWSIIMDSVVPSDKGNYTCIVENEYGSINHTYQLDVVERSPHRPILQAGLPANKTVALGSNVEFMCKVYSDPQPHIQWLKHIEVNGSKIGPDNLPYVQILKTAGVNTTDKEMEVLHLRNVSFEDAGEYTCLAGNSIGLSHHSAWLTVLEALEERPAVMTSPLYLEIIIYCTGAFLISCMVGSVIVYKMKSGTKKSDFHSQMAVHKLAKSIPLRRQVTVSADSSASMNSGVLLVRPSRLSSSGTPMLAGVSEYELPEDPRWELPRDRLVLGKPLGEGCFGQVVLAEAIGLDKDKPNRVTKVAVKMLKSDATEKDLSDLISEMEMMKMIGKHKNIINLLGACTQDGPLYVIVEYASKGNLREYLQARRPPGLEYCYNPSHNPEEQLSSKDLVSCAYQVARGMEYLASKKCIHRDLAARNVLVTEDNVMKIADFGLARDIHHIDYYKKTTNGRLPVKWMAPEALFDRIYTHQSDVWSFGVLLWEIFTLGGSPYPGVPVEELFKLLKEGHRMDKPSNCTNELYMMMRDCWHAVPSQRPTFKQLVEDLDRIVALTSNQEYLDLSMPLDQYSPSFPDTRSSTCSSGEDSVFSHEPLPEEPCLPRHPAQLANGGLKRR

[52] = target: Leukocyte tyrosine kinase receptor (Homo sapiens, UniProt P29376); assay: Navigating the Kinome. Panel member name: LTK; format: functional
[53] = target: High affinity nerve growth factor receptor (Homo sapiens, UniProt P04629); format: functional;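 note: NTRK1 tested as one member of a kinome-wide profiling panel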
LIM domain kinase 1 = LIM domain kinase 1 (Homo sapiens, UniProt P53667); assay: Navigating the Kinome. Panel member name: LIMK1; format: functional
[54] = target: Dual specificity protein kinase CLK4 (Homo sapiens, UniProt Q9HAZ1); format: functional
[55] = target: Inhibitor of nuclear factor kappa-B kinase subunit epsilon (Homo sapiens, UniProt Q14164); assay: Navigating the Kinome. Panel member name: IKBKE; format: functional
[56] = target: Dual specificity mitogen-activated protein kinase kinase 2 (Homo sapiens, UniProt P36507); assay: Navigating the Kinome. Panel member name: MAP2K2; format: functional
[57] = target: Calcium/calmodulin-dependent protein kinase type II subunit alpha (Homo sapiens, UniProt Q9UQM7); assay: Navigating the Kinome. Panel member name: CAMK2A; format: functional

SMILES: Cc1ccc2sc(N(CCCN(C)C)C(=O)c3ccc(Br)s3)nc2c1C
EC50 [1]: 10.3 µM (active)
EC50 (Melanocortin receptor 4): > 89.2 µM (inactive)
IC50 (HEK293 [2]): 35.3 µM (inactive)
EC50 (Insulin-degrading enzyme [3]): 20.1 µM (inactive)
EC50 (Insulin-degrading enzyme [4]): > 54.7 µM (inactive)
EC50 [5]: 50.5 µM (active)
EC50 (HEK293 [6]): > 54.7 µM (inactive)

IC50 [7]: 2.57 µM (active)
IC50 [8]: 8.23 µM (active)
SMILES: Cc1ccc(Oc2c(Cl)cnn(Cc3cccc4ccccc34)c2=O)cc1

Ki [9]: > 2.51 µM (inactive)
Ki [10]: > 3.16 µM (inactive)
Ki [11]: > 6.31 µM (inactive)
Ki [12]: > 3.98 µM (inactive)
Ki [13]: > 3.16 µM (inactive)
Ki [14]: > 2.51 µM (inactive)
Ki [15]: > 5.01 µM (inactive)
Ki [16]: > 3.98 µM (inactive)
Ki [17]: 3.16 µM (active)
Ki [18]: > 3.16 µM (inactive)
Ki (Activated CDC42 kinase 1): > 3.98 µM (inactive)
Ki [19]: > 3.16 µM (inactive)
Ki [20]: > 3.98 µM (inactive)
Ki [21]: > 3.98 µM (inactive)
Ki [22]: > 2.51 µM (inactive)
Ki [23]: > 3.98 µM (inactive)
Ki [24]: > 2.51 µM (inactive)
Ki [25]: > 3.98 µM (inactive)
Ki [26]: > 2.51 µM (inactive)
Ki [27]: > 3.98 µM (inactive)
Ki [28]: > 3.16 µM (inactive)
Ki [29]: > 6.31 µM (inactive)
Ki (Activin receptor type-1): > 3.98 µM (inactive)
Ki [30]: > 6.31 µM (inactive)
Ki [31]: > 5.01 µM (inactive)
Ki [32]: 0.2 µM (active)
Ki [33]: > 3.16 µM (inactive)
Ki [34]: > 3.98 µM (inactive)
Ki [35]: > 3.98 µM (inactive)
Ki [36]: > 3.16 µM (inactive)
Ki [37]: > 2.51 µM (inactive)
Ki [38]: > 6.31 µM (inactive)
Ki [40]: > 2.51 µM (inactive)
Ki [41]: > 2.51 µM (inactive)
Ki (Aurora kinase B): > 3.98 µM (inactive)
Ki [42]: > 2.51 µM (inactive)
Ki [43]: > 3.98 µM (inactive)
Ki [44]: > 3.16 µM (inactive)
Ki [45]: > 5.01 µM (inactive)
Ki [46]: > 6.31 µM (inactive)
Ki [47]: > 3.98 µM (inactive)
Ki [48]: > 3.98 µM (inactive)
Ki [49]: > 3.16 µM (inactive)
Ki [50]: > 2.51 µM (inactive)
Ki [51]: > 3.98 µM (inactive)
Ki [52]: > 2.51 µM (inactive)
Ki [53]: > 3.16 µM (inactive)
Ki (LIM domain kinase 1): > 3.16 µM (inactive)
Ki [54]: > 2.51 µM (inactive)
Ki [55]: > 3.16 µM (inactive)
Ki [56]: > 3.98 µM (inactive)
Ki [57]: > 3.98 µM (inactive)
SMILES: Cc1cc(OCc2ccc(Cl)c(Cl)c2)ccc1CN1CC(C(=O)O)C1
Ki [39]: > 5.01 µM (inactive)
